Reference: US11274129B2, “Methods for protein tyrosine phosphorylation profiling with variant SH2 domains” (priority 2016, dated 2022)

What was measured:
BT-474 cells = assay: Cell growth inhibition assay (CellTiter 96 AQueous One Solution Cell Proliferation Assay); format: cell-based, human; details: single inhibitor at different concentrations (FIG. 11A)
Method: (§1) Cell growth inhibition assays were performed with the CellTiter 96 AQueous One Solution Cell Proliferation Assay (Promega) according to the manufacturer's recommendations.

SK-BR-3 cells = assay: as above; format: cell-based, human; details: single inhibitor at different concentrations (FIG. 11A)
Method: as §1

MDA-MB-231 cells = assay: as above; format: cell-based, human; details: single inhibitor at different concentrations (FIG. 11A)
Method: as §1

MCF-7 cells = assay: as above; format: cell-based, human; details: single inhibitor at different concentrations (FIG. 11A)
Method: as §1

[1] = molecular target: pTyr-including peptide found in the sequence of the receptor tyrosine kinase EGFR (Homo sapiens, UniProt P06241, K204L/S186A/T181V); details: read-out: equilibrium dissociation constant (Kd); cited from earlier work
[2] = test system: pTyr-including peptide found in the sequence of the receptor tyrosine kinase EGFR; assay: Binding of wild-type and TrM Fyn SH2 domain to EGFR pTyr peptide
Source text: The relative affinity of a variant SH2 domain, including a SH2 Superbinder, can be readily assessed compared to the affinity of the relevant parent SH2 domain, using binding assays known in the art, including as described in Kaneko, T. et al., “SH2 Superbinders act as antagonists of cell signaling”, (2012) Sci. Signal. 5: ra68; and U.S. patent application Ser. No. 14/388,592.

[3] = molecular target: pTyr-including peptide found in the sequence of the receptor tyrosine kinase EGFR (Homo sapiens, UniProt P06241); details: cited from earlier work
[4] = test system: pTyr-including peptides from pervanadate-treated Jurkat cells; assay: Enrichment of pTyr-including peptides from pervanadate-treated Jurkat cells by affinity reagents, 1D LC-MS/MS; parameters: species or system human; details: 3 mg Jurkat peptides
Method: Experiments were conducted to determine the relative efficacy of the variant Src SH2 domains and commonly used anti-pTyr antibodies as affinity reagents for pTyr-including peptides from biological samples. His6/GST-tagged TrM Src SH2 domain (SEQ ID NO: 11) and His6-tagged QuadM Src SH2 domain (SEQ ID NO: 13), as well as anti-pTyr antibodies, were prepared in functionally-equivalent molar amounts by using half the molar amount of the antibodies relative to the SH2 domain variants given that each antibody molecule has two binding sites for its antigen.
The first experiment tested the relative ability of the following affinity reagents to extract pTyr-including peptides from a peptide mixture prepared from Jurkat cells: a His6/GST-tagged TrM Src SH2 (SEQ ID NO: 11), a His6-tagged QuadM Src SH2 (SEQ ID NO: 13), the anti-pTyr antibody 4G10 (agarose conjugate, obtained from Millipore), and a mixture of commercially-available anti-pTyr antibodies. […] The two SH2 affinity reagents were also tested at a 30× amount; the antibodies were not tested at a 30× amount due to the prohibitive cost of doing so. The purified SH2 affinity reagents were prepared as described in Example 1. The antibody mixture contained 4G10 (as above), PY99 (obtained from Santa Cruz Biotechnology), and P-Tyr-100 (slurry of PTMScan® Phospho-Tyrosine Mouse mAb, obtained from Cell Signaling Technology). Since the concentration of P-Tyr-100 is unknown, the amount was used as recommended by the vendor (i.e., 4 μL for 1 mg peptide digest).
FIG. 2A presents a schematic of the experimental design. Each amount of His6-tagged SH2 domain variant or antibody was subjected to a binding experiment with 3 mg of a peptide mixture prepared from pervanadate-treated Jurkat cells.
Jurkat cells (obtained from ATCC) were cultured in a humidified atmosphere of 5% CO2 at 37° C. in Roswell Park Memorial Institute 1640 medium (RPMI-1640) supplemented with 10% bovine serum and 100 U/mL of streptomycin and penicillin.
The cells were again collected by centrifugation. The cell pellets were gently homogenized in an ice-cold lysis buffer containing 8 M urea, 50 mM tris(hydroxymethyl)aminomethane (Tris)-HCl (pH 7.4), 2% protease inhibitor cocktail (v/v, obtained from Sigma-Aldrich), 1% Triton X-100 (v/v), 1 mM NaF, and 1 mM Na3VO4, followed by sonication at 400 W for 120 s. After centrifugation at 25,000 g for 1 h, proteins were precipitated in ice-cold acetone/ethanol/acetic acid (50/50/0.1, V/V/V) solution. Subsequently, the proteins were diluted in reducing buffer containing 100 mM triethylammonium bicarbonate (TEAB) buffer (pH 8.2) and 8 M urea, and the final protein concentration was determined by Bradford assay. The protein suspension was reduced in 10 mM dithiothreitol (DTT) at 37° C. for 2 h, and it was then alkylated in 20 mM iodoacetamide (IAA) in darkness at room temperature for another 30 min. Trypsin digestion was performed at 37° C. overnight with an enzyme-to-protein ratio of 1/25 (w/w). The resulting peptide mixture was stored at −80° C. for further analysis.
Desalted Jurkat peptides (30 mg) were dissolved in ice-cold immunoaffinity purification (IAP) buffer and then split into 10 aliquots with 3 mg of Jurkat peptides each. Binding experiments were performed with the amounts of antibody (1×, 5×) or SH2 domain variant (1×, 5×, 30×) set out in Table 1 and FIG. 2A.
For antibody-based enrichment, 4G10 or the antibody mixture was incubated with the sample at 4° C. overnight while rotating. The beads were washed three times with ice-cold IAP buffer and twice with ice-cold water. To release the bound peptides, the beads were eluted twice with 200 μL 0.15% trifluoroacetic acid (TFA) for 15 min at room temperature.
For SH2-based enrichment, Ni-NTA beads containing the purified SH2 proteins were washed extensively in twenty column volumes of PBS buffer (pH 7.0) containing 20 mM imidazole. […] The washed beads were incubated with the peptide mixture at 4° C. overnight while rotating. […]

Row | Molecule | proliferation relative to no drug exposure (BT-474 cells) | proliferation relative to no drug exposure (SK-BR-3 cells) | proliferation relative to no drug exposure (MDA-MB-231 cells) | proliferation relative to no drug exposure (MCF-7 cells) | other results
1 | CS(=O)(=O)CCNCc1ccc(-c2ccc3ncnc(Nc4ccc(OCc5cccc(F)c5)c(Cl)c4)c3c2)o1 [lapatinib] | sensitive | sensitive | insensitive | insensitive | 
2 | CNC(=O)c1c(F)cccc1Nc1nc(Nc2cc3c(cc2OC)CCN3C(=O)CN(C)C)nc2[nH]ccc12 [GSK1838705] | neither inhibitor had an effect | neither inhibitor had an effect | neither inhibitor had an effect | inhibited the proliferation of MCF-7 in a dose-dependent manner | 
3 | CCN1CCN(Cc2ccc(C(=O)Nc3ccc(C)c(Oc4ccc5c(c4)CC(=O)N5)c3)cc2C(F)(F)F)CC1 [DDR1-IN-1] | neither inhibitor had an effect | neither inhibitor had an effect | neither inhibitor had an effect |  | 
4 | TrM Fyn SH2 domain: variant human Fyn SH2 domain with Thr181Val, Ser186Ala and Lys204Leu (protein, SH2 protein domain; TrM human Fyn SH2 domain, variant human Fyn SH2 domain with Thr181Val, Ser186Ala and Lys204Leu) APVDSIQAEEWYFGKLGRKDAERQLLSFGNPRGTFLIRESETVKGAYALSIRDWDDMKGDHVKHYLIRKLDNGGYYITTRAQFETLQQLVQHYSERAAGLCCRLVVPCHKG |  |  |  |  | Kd [1]: 9.7 nM; fold tighter binding than wild-type Fyn SH2 domain [2]: around 380 fold
5 | wild-type Fyn SH2 domain: wild-type human Fyn SH2 domain (protein, SH2 protein domain; Wild-type human Fyn SH2 domain) APVDSIQAEEWYFGKLGRKDAERQLLSFGNPRGTFLIRESETTKGAYSLSIRDWDDMKGDHVKHYKIRKLDNGGYYITTRAQFETLQQLVQHYSERAAGLCCRLVVPCHKG |  |  |  |  | Kd [3]: 3.7 µM
6 | QuadM Src SH2: TrM human Src SH2 domain variant with additional mutation Thr218Trp in its specificity-binding pocket; His6-tagged form SEQ ID NO: 13 (protein, SH2 protein domain; QuadM human Src SH2 domain) DSIQAEEWYFGKITRRESERLLLNAENPRGTFLVRESETVKGAYALSVSDFDNAKGLNVKHYLIRKLDSGGFYIWSRTQFNSLQQLVAYYSKHADGLCHRLTTVCPTSK |  |  |  |  | Number of pTyr sites identified ([4]; 0.375 nmol (1x) pTyr-binding sites): 679; Number of pTyr sites identified ([4]; 1.875 nmol (5x) pTyr-binding sites): 938; Number of pTyr sites identified ([4]; 11.25 nmol (30x) pTyr-binding sites): 1186
